{"source": "patent US20220362249A1", "about": "“METHODS FOR TREATING […]” (PTC Therapeutics MP, Inc., priority 2019, published 2022)", "key": {"blood Phe [1]": {"tested_on": "blood Phe", "assay": "Reduction of blood Phe in patients with PKU, randomized crossover of PTC923 vs sapropterin dihydrochloride", "type": "in vivo, human", "details": "for Mean (SD) blood Phe, At baseline: 20 mg/kg period, Day 1 pre-dose; for Least squares mean (SE) change from baseline in blood Phe / Mean (SD) blood Phe, Change / Mean (SD) blood Phe, On treatment: 20 mg/kg/day oral, 7 days; for Mean (SD) blood Phe, On treatment: mean of days 3, 5 and 7", "description": "Following screening for eligibility, a 7-day run-in period commenced. Patients then received 7 days of once-daily oral treatment with either PTC923 20 mg/kg/day (“low dose”), or PTC923 60 mg/kg/day or sapropterin dihydrochloride, in a random order. PTC923 (formerly CNSA-001) is oral sepiapterin. Each patient was randomized to one of six treatment sequences (FIG. 2). The randomization in six different treatment sequences was intended to minimize carry over effect, treatment period effect, patient fatigue, and natural fluctuations in blood Phe levels. A 7-day washout period separated each active treatment period. Patients were asked to maintain their usual pre-study diet, including consumption of amino acid mixtures if prescribed, and were monitored throughout the study by a metabolic dietician.\nBlood samples for measurement of Phe were taken on 7, 5, 3, and 1 days before randomization. During treatment periods, blood was taken pre-dose for day 1 and post-dose for days 3, 5 and 7. During the washout periods, blood was taken for measurement of Phe on days 1, 3, 5, and 7. All samples were taken under fasting conditions or no earlier than 3 hours following a meal and at the same time of day. Blood Phe was measured using a validated LC-MS-MS technique of dried blood sampling via Volumetric Absorptive Microsampling (VAMS®) using Mitra® 4-sampler clamshells, at a central bioanalytical laboratory (Agilex Biolabs Pty Ltd).\nThe main objective of the study was to assess the efficacy of PTC923 measured as the mean blood Phe change from baseline. The efficacy population consisted of all patients who were randomized and had blood Phe measurements before treatment and at days 3, 5 and 7 of treatment from at least one treatment period. The safety population consisted of all patients who were randomized and who received any dose of study treatment. The sample size calculation was based on an all-comers, placebo-controlled regulatory study of sapropterin with an observed mean decrease in blood Phe of 99 μmol/L and standard deviation of 220 μmol/L, and assumed a true mean decrease in blood Phe of 300 μmol/L with 80% power utilizing a 2-sided α of 0.05.\nResponse to PTC923 was evaluated by measuring the mean change from baseline in blood Phe (calculated as the mean of measurements at days 3, 5 and 7 of each treatment period). Day 1 pre-dose blood Phe concentrations for each treatment period served as the individual patient specific baseline for that period.\nThe change from baseline in blood Phe of each treatment period was modelled using a linear mixed model for repeated measures (MMRM). The efficacy model included fixed effects for baseline for each treatment period, treatment group, sequence, period, and a random subject effect within each sequence, with a first order autoregressive AR (1) covariance structure. No unplanned covariates were included.\nPairwise comparisons in changes from baseline in Phe were performed between each PTC923 treatment and sapropterin treatment by calculating the least squares means with Dunnet's method of adjustment for multiple comparisons. The estimated change in blood Phe levels, their standard errors (SE) and associated p-values were calculated for each pairwise comparison. Dunnet's method of adjustment was used to account for the multiple comparisons of the test groups against the control group. This adjustment ensured that the overall Type I error rate under the null hypothesis was maintained despite multiple test groups being compared to the single control group.\nThe overall mean changes in blood Phe for each treatment were calculated and the standard deviations (SD) were determined.\nA prespecified sensitivity analysis excluded treatment periods where baseline Phe was <300 μmol/L and a responder analysis looked at patients with baselines ≥300 μmol/L who responded to sapropterin and/or to PTC923 treatment by ≥20% reduction."}, "[2]": {"assay": "Adverse events in patients with PKU on PTC923 or sapropterin dihydrochloride", "type": "in vivo, human", "details": "20 mg/kg", "excerpt": "PTC923 safety was monitored and adverse events (AEs) were coded using the Medical Dictionary for Regulatory Activities (MedDRA®) version 21.0. Treatment-emergent adverse events (TEAEs) were defined as AE that began on or after first dose of study drug. A TEAE was associated with the study treatment currently being received, or the last study treatment before its onset. A treatment-related TEAE was, in the judgment of the investigator possibly, probably or definitely related to treatment. A serious AE (SAE) was defined as resulting in death, life-threatening AE, inpatient hospitalization or prolongation of existing hospitalization, a persistent or significant disability/incapacity or a substantial disruption of the ability to conduct normal life functions, or a congenital anomaly/birth defect."}, "blood Phe [3]": {"tested_on": "blood Phe", "details": "standard deviation of 220 μmol/L; cited from earlier work"}, "[4]": {"tested_on": "phenylalanine plasma concentrations", "details": "cited from earlier work"}, "[5]": {"details": "Subjects with classical PKU (N = 11)"}}, "note": "Counter-ions that a name gives are not always drawn."}
{"smiles": "C[C@H](O)[C@H](O)[C@H]1CNc2nc(N)[nH]c(=O)c2N1", "note": "[sapropterin dihydrochloride, reference compound]", "values": [{"measurement": "Proportion of patients achieving blood Phe <360 μmol/L", "setting": "blood Phe [1]; 20 mg/kg, n of 24", "value": 42, "unit": "%"}, {"measurement": "Mean (SD) blood Phe, At baseline", "setting": "blood Phe [1]; All subjects (N = 24)", "value": "710.4 (370.0) μmol/L"}, {"measurement": "Least squares mean (SE) change from baseline in blood Phe", "setting": "blood Phe [1]; All subjects (N = 24)", "value": "−91.5 (41.7) μmol/L"}, {"measurement": "Mean (SD) blood Phe, Change", "setting": "blood Phe [1]; All subjects (N = 24)", "value": "−90.8 (226.9) μmol/L"}, {"measurement": "Mean (SD) blood Phe, On treatment", "setting": "blood Phe [1]; All subjects (N = 24)", "value": "619.5 (475.3) μmol/L"}, {"measurement": "Least squares mean change from baseline in blood Phe to first Phe measurement (Day 3)", "setting": "blood Phe [1]; Day 3, 20 mg/kg", "value": -72.3, "unit": "µmol/L"}, {"measurement": "Mean (SD) blood Phe, At baseline", "setting": "blood Phe [1]; [5]", "value": "903.5 (422.5) μmol/L"}, {"measurement": "Mean (SD) blood Phe, Change", "setting": "blood Phe [1]; [5]", "value": "10.7 (221.6) μmol/L"}, {"measurement": "Least squares mean (SE) change from baseline in blood Phe", "setting": "blood Phe [1]; Subjects with classical PKU (N = 11), dihydrochloride, 20 mg/kg/day", "value": -2.8, "unit": "µmol/L"}, {"measurement": "Least squares mean (SE) change from baseline in blood Phe", "setting": "blood Phe [1]; Subjects with classical PKU (N = 11), listed as Sapropterin dihydrochloride, dihydrochloride, 20 mg/kg/day", "value": "−2.8 (62.0) μmol/L"}, {"measurement": "Mean (SD) blood Phe, On treatment", "setting": "blood Phe [1]; [5]", "value": "914.2 (538.7) μmol/L"}, {"measurement": "Least squares mean change from baseline in blood Phe", "setting": "blood Phe [1]; group of 12 responders (Phe reduction ≥20%, baseline ≥300 μmol/L), 20 mg/kg", "value": -139.70, "unit": "µmol/L"}, {"measurement": "Non-classical subjects normalized (blood phenylalanine less than 120 micromole per liter)", "setting": "blood Phe [1]; non-classical subjects", "value": 15.4, "unit": "%"}, {"measurement": "Patients reporting any adverse event", "setting": "[2]", "value": 21, "unit": "%"}, {"measurement": "Patients reporting severe AE", "setting": "[2]", "value": 0, "unit": "%"}, {"measurement": "Patients reporting treatment-related AE", "setting": "[2]", "value": 0, "unit": "%"}, {"measurement": "Headache (all-cause AE)", "setting": "[2]; transient", "value": 4, "unit": "%"}, {"measurement": "Observed mean decrease in blood Phe", "setting": "blood Phe [3]", "value": 99, "unit": "µmol/L"}, {"measurement": "Classical PKU subjects that respond to treatment (historically)", "setting": "[4]", "value": "about 10%"}]}
